Drawing on PMC7049299, “UGT74AF3 enzymes specifically catalyze the glucosylation of 4-hydroxy-2,5-dimethylfuran-3(2H)-one, an important volatile compound in Camellia sinensis” (Horticulture Research, 2020), this text covers relative enzymatic activity and Km for 1 compound.

For experiment [1], the target named is T1, UGT74AF3b (Camellia sinensis, UniProt A0A4S4DWR1).
T1 construct: gene TEA_014443; full-length, N-terminal GST tag (pGEX-4T-1), E. coli BL21(DE3) pLysS, GST-resin purified; Ala at residue 456
T1 sequence (A0A4S4DWR1 entry or part of it): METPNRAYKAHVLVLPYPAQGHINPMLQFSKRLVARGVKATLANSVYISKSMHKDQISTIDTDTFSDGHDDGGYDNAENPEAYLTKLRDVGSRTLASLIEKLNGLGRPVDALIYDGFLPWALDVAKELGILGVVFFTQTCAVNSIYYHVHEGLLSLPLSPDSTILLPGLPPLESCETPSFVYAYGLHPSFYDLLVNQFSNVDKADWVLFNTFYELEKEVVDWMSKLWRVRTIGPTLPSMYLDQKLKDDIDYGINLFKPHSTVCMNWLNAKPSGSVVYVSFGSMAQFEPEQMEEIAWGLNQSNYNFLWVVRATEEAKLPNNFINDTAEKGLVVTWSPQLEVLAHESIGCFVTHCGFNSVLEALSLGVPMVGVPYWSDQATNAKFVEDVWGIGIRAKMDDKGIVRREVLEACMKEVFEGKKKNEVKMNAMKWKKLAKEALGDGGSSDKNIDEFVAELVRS
Put plainly: relative glycosyltransferase activity. Type of experiment: biochemical. The note with it: UDP-Glc, UDP-Gal or UDP-GA as sugar donor.

For experiment [2], the target named is T1, UGT74AF3b. As to the kind of experiment: glucosyltransferase kinetics (UDP-Glo assay / LC-MS; readout for kinetics not told). It counts as biochemical. Particulars: optimized conditions (optimum pH 8.5, 30 °C); sugar donor not stated for kinetics, presumably UDP-glucose. The source says:
glucosyltransferase kinetics (UDP-Glo assay / LC-MS; readout for kinetics not told) on UGT74AF3b

Structures are written as SMILES.

What is called Km is the substrate concentration at which the rate is half of its maximum. `CC1=C(O)C(=O)C(C)O1` (centres unmarked) [HDMF, 4-Hydroxy-2,5-dimethylfuran-3(2H)-one]: the relative enzymatic activity result in experiment [1] was “The A456V mutant exhibited enhanced glucosylation activity toward HDMF, EHMF, and HMF”. In addition, in experiment [2], the Km amounted to 5.14 ± 1.58 µM.
